Measurements taken from ChEMBL document CHEMBL5543144, “Discovery of a Novel Potent Tetrazole Antifungal Candidate with High Selectivity and Broad Spectrum” (J Med Chem, 2024).
In brackets after ≈: the same amount, converted by molar mass. Activity calls are given as the source filed them. The rule behind the calls is not given here.

Tests used:
Candida albicans [1] = assay: Antifungal activity against Candida albicans SC5314 assessed as inhibition of fungal growth incubated for 24 hrs by CLSI protocol based microbroth dilution method; assay type: functional
Candida parapsilosis = assay: Antifungal activity against Candida parapsilosis 22019 assessed as inhibition of fungal growth incubated for 24 hrs by CLSI protocol based microbroth dilution method; assay type: functional; conditions: Lodderomyces parapsilosis
Candida tropicalis [2] = assay: Antifungal activity against Candida tropicalis 2718 assessed as inhibition of fungal growth incubated for 24 hrs by CLSI protocol based microbroth dilution method; assay type: functional
Pichia kudriavzevii [3] = assay: Antifungal activity against Candida krusei 4946 assessed as inhibition of fungal growth incubated for 24 hrs by CLSI protocol based microbroth dilution method; assay type: functional
Nakaseomyces glabratus [4] = assay: Antifungal activity against Candida glabrata 537 assessed as inhibition of fungal growth incubated for 48 hrs by CLSI protocol based microbroth dilution method; assay type: functional
Cryptococcus neoformans [5] = assay: Antifungal activity against Cryptococcus neoformans H99 assessed as inhibition of fungal growth incubated for 72 hrs by CLSI protocol based microbroth dilution method; assay type: functional
Aspergillus fumigatus = assay: Antifungal activity against Aspergillus fumigatus 7544 assessed as inhibition of fungal growth incubated for 48 hrs by CLSI protocol based microbroth dilution method; assay type: functional
[Candida] auris [6] = Antifungal activity against fluconazole resistant Candida auris 887 assessed as inhibition of fungal growth incubated for 48 hrs by CLSI protocol based microbroth dilution method; assay type: functional; conditions: Candidozyma auris
[Candida] auris [7] = Antifungal activity against fluconazole resistant Candida auris 888 assessed as inhibition of fungal growth incubated for 48 hrs by CLSI protocol based microbroth dilution method; assay type: functional; conditions: Candidozyma auris
[Candida] auris [8] = Antifungal activity against fluconazole resistant Candida auris D12 assessed as inhibition of fungal growth incubated for 48 hrs by CLSI protocol based microbroth dilution method; assay type: functional; conditions: Candidozyma auris
[Candida] auris [9] = Antifungal activity against fluconazole resistant Candida auris BS12372 assessed as inhibition of fungal growth incubated for 48 hrs by CLSI protocol based microbroth dilution method; assay type: functional; conditions: Candidozyma auris
[Candida] auris [10] = Antifungal activity against fluconazole resistant Candida auris 789 assessed as inhibition of fungal growth incubated for 48 hrs by CLSI protocol based microbroth dilution method; assay type: functional; conditions: Candidozyma auris
[Candida] auris [11] = Antifungal activity against fluconazole resistant Candida auris 791 assessed as inhibition of fungal growth incubated for 48 hrs by CLSI protocol based microbroth dilution method; assay type: functional; conditions: Candidozyma auris
Candida albicans [12] = assay: Antifungal activity against Candida albicans SC5314 infected in ICR mouse model assessed as fungal burden in kidney at 1 mg/kg/day, po pre-infected with fungi for 2 hrs followed by compound administration and measured after 48 hrs (reference value: 3.89 Log10CFU/g); assay type: functional
Erythrocyte = assay: Hemolytic activity in rabbit RBC assessed as hemolysis at 64 ug/ml incubated for 1 hrs by absorbance based assay; assay type: toxicity, cell-based, Oryctolagus cuniculus; conditions: dose 64 µg/ml
[13] = target: T1, Lanosterol 14-alpha demethylase (Candida albicans (strain SC5314 / ATCC MYA-2876) (Yeast), UniProt P10613); assay: Inhibition of CYP51 in Candida albicans SC5314 assessed as ergosterol level at 0.5 ug/ml incubated for 8 hrs by GC-MS analysis (reference value: 79.31%); set-up: scale not given: the % may be the effect or the level left; conditions: at 0.5 µg/mL
T1 sequence (P10613 whole entry): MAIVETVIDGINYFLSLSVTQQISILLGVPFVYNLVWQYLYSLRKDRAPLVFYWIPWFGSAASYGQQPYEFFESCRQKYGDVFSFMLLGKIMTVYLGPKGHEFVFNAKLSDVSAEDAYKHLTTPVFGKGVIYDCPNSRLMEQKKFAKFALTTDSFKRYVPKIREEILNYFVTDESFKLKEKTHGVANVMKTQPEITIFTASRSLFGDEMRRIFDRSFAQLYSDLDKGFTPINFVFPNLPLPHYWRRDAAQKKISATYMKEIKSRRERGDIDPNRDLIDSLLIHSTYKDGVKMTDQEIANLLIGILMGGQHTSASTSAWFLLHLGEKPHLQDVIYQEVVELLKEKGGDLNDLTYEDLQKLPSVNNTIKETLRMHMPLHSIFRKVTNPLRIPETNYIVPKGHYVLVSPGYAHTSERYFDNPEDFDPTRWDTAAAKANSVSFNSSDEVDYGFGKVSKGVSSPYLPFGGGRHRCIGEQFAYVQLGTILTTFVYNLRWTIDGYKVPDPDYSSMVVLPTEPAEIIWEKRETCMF

Cell membrane = assay: Disruption of cell membrane integrity in Candida albicans SC5314 assessed as increase in increase in red fluorescence at 0.5 ug/ml incubated for 8 hrs by PI staining based fluorescence microscopic analysis; conditions: dose 0.5 µg/ml
Candida albicans [14] = assay: Antifungal activity against Candida albicans SC5314 assessed as inhibition of fungal growth at 0.0156 ug/ml incubated for 24 hrs by plate reader analysis; assay type: functional, organism-based; conditions: dose 0.0156 µg/ml
Cryptococcus neoformans [15] = assay: Antifungal activity against Cryptococcus neoformans H99 assessed as inhibition of fungal growth at 0.125 ug/ml incubated for 48 hrs by plate reader analysis; assay type: functional, organism-based; conditions: dose 0.125 µg/ml
Nakaseomyces glabratus [16] = assay: Antifungal activity against Candida glabrata 537 assessed as inhibition of fungal growth at 0.25 ug/ml incubated for 24 hrs by plate reader analysis; assay type: functional, organism-based; conditions: dose 0.25 µg/ml
Pichia kudriavzevii [17] = assay: Antifungal activity against Candida krusei 4946 assessed as inhibition of fungal growth at 0.125 ug/ml incubated for 24 hrs by plate reader analysis; assay type: functional, organism-based; conditions: dose 0.125 µg/ml
Candida tropicalis [18] = assay: Antifungal activity against Candida tropicalis 2718 assessed as inhibition of fungal growth at 32 ug/ml incubated for 24 hrs by plate reader analysis; assay type: functional, organism-based; conditions: dose 32.0 µg/ml
Candida albicans [19] = assay: Inhibition of biofilm formation in Candida albicans SC5314 incubated for 24 hrs by XTT reduction assay; assay type: functional, organism-based; conditions: dose 0.008-4 µg/ml
Candida albicans [20] = assay: Inhibition of biofilm formation in Candida albicans SC5314 at 0.008 ug/ml incubated for 24 hrs by XTT reduction assay relative to control; assay type: functional
[21] = Half-life in male ICR (CD-1) mouse at 5 mg/kg, iv by LC-MS/MS analysis; assay type: ADME, organism-based; conditions: in vivo
[22] = AUC (0 to t) in male ICR (CD-1) mouse at 5 mg/kg, iv by LC-MS/MS analysis; assay type: ADME, organism-based; conditions: in vivo
[23] = Clearance in male ICR (CD-1) mouse at 5 mg/kg, iv by LC-MS/MS analysis; assay type: ADME, organism-based; conditions: in vivo
[24] = MRT (0 to t) in male ICR (CD-1) mouse at 5 mg/kg, iv by LC-MS/MS analysis; assay type: ADME, organism-based; conditions: in vivo
[25] = Volume of distribution at steady state in male ICR (CD-1) mouse at 5 mg/kg, iv by LC-MS/MS analysis; assay type: ADME, organism-based; conditions: in vivo, read-out: Vdss
[26] = Cmax in male ICR (CD-1) mouse at 10 mg/kg, po by LC-MS/MS analysis; assay type: ADME, organism-based; conditions: in vivo
[27] = Tmax in male ICR (CD-1) mouse at 10 mg/kg, po by LC-MS/MS analysis; assay type: ADME, organism-based; conditions: in vivo
[28] = Half-life in male ICR (CD-1) mouse at 10 mg/kg, po by LC-MS/MS analysis; assay type: ADME, organism-based; conditions: in vivo
[29] = AUC (0 to t) in male ICR (CD-1) mouse at 10 mg/kg, po by LC-MS/MS analysis; assay type: ADME, organism-based; conditions: in vivo
[30] = MRT (0 to t) in male ICR (CD-1) mouse at 10 mg/kg, po by LC-MS/MS analysis; assay type: ADME, organism-based; conditions: in vivo
[31] = Oral bioavailability in male ICR (CD-1) mouse at 10 mg/kg by LC-MS//MS analysis; assay type: ADME, organism-based; conditions: in vivo
Candida albicans [32] = assay: Antifungal activity against Candida albicans SC5314 infected in ICR mouse model assessed as fungal burden in kidney at 5 mg/kg/day, po pre-infected with fungi for 2 hrs followed by compound administration and measured after 48 hrs (reference value: 3.89 Log10CFU/g); assay type: functional
Candida albicans [33] = assay: Antifungal activity against Candida albicans SC5314 infected in ICR mouse model assessed as reduction in fungal burden in kidney pre-infected with fungi for 2 hrs followed by oral administration of compound and measured after 48 hrs; assay type: functional, organism-based; conditions: dose 1-5 mg/kg/day
Candida albicans [34] = assay: Antifungal activity against Candida albicans SC5314 infected in ICR mouse model assessed as median survival time at 1 mg/kg/day, po pre-infected with fungi for 2 hrs followed by compound administration and measured after 48 hrs (reference value: 3.5 days); assay type: functional
Candida albicans [35] = assay: Antifungal activity against Candida albicans SC5314 infected in ICR mouse model assessed as median survival time at 5 mg/kg/day, po pre-infected with fungi for 2 hrs followed by compound administration and measured after 48 hrs (reference value: 3.5 days); assay type: functional
[36] = target: T1, Lanosterol 14-alpha demethylase; assay: Inhibition of CYP51 in Candida albicans SC5314 assessed as decrease in ergosterol level at 0.008 ug/ml incubated for 8 hrs by GC-MS analysis; conditions: at 0.008 µg/mL
[37] = target: T1, Lanosterol 14-alpha demethylase; assay: Inhibition of CYP51 in Candida albicans SC5314 assessed as increase in obtusifoliol level at 0.008 ug/ml incubated for 8 hrs by GC-MS analysis relative to control; set-up: scale not given: the % may be the effect or the level left; conditions: at 0.008 µg/mL
[38] = target: T1, Lanosterol 14-alpha demethylase; assay: Inhibition of CYP51 in Candida albicans SC5314 assessed as increase in eburicol level at 0.008 ug/ml incubated for 8 hrs by GC-MS analysis relative to control; set-up: scale not given: the % may be the effect or the level left; conditions: at 0.008 µg/mL
Candida albicans [39] = assay: Antifungal activity in Candida albicans SC5314 assessed as inhibition of fungal growth incubated for 4 days by induction of resistance assay; assay type: functional; conditions: SC5314, 96 h, time 4 day
Candida albicans [40] = assay: Antifungal activity in Candida albicans SC5314 assessed as inhibition of fungal growth incubated for 17 days by induction of resistance assay; assay type: functional; conditions: SC5314, 408 h, time 17 day

OC(Cn1cncn1)(Cn1cncn1)c1ccc(F)cc1F [FLUCONAZOLE]
MIC50 (Candida albicans [1]): 0.125 µg/mL (≈ 0.408 µM)
MIC50 (Candida parapsilosis): 1 µg/mL (≈ 3.27 µM)
MIC50 (Candida tropicalis [2]): < 0.125 µg/mL
MIC50 (Pichia kudriavzevii [3]): 8 µg/mL (≈ 26.1 µM)
MIC50 (Nakaseomyces glabratus [4]): 0.5 µg/mL (≈ 1.63 µM)
MIC50 (Cryptococcus neoformans [5]): 8 µg/mL (≈ 26.1 µM)
MIC50 (Aspergillus fumigatus): > 64 µg/mL
MIC50 ([Candida] auris [6]): > 64 µg/mL
MIC50 ([Candida] auris [7]): > 64 µg/mL
MIC50 ([Candida] auris [8]): > 64 µg/mL
MIC50 ([Candida] auris [9]): > 64 µg/mL
MIC50 ([Candida] auris [10]): > 64 µg/mL
MIC50 ([Candida] auris [11]): > 64 µg/mL
Activity (Candida albicans [12]): 2.41 log10CFU/g
Activity (Erythrocyte): Non-Toxic
Activity [13]: 10.61%
Activity (Cell membrane): Active

C[C@@H](n1ccc2cc(Cl)ccc2c1=O)[C@](O)(Cn1cnnn1)c1ccc(F)cc1F
MIC50 (Candida albicans [1]): < 0.008 µg/mL
MIC50 (Candida parapsilosis): < 0.008 µg/mL
MIC50 (Candida tropicalis [2]): < 0.008 µg/mL
MIC50 (Pichia kudriavzevii [3]): 0.031 µg/mL (≈ 0.0718 µM)
MIC50 (Nakaseomyces glabratus [4]): < 0.008 µg/mL
MIC50 (Cryptococcus neoformans [5]): < 0.008 µg/mL
MIC50 (Aspergillus fumigatus): 2 µg/mL (≈ 4.63 µM)
MIC50 ([Candida] auris [6]): 0.5 µg/mL (≈ 1.16 µM)
MIC50 ([Candida] auris [7]): 0.25 µg/mL (≈ 0.579 µM)
MIC50 ([Candida] auris [8]): < 0.125 µg/mL
MIC50 ([Candida] auris [9]): < 0.125 µg/mL
MIC50 ([Candida] auris [10]): 0.5 µg/mL (≈ 1.16 µM)
MIC50 ([Candida] auris [11]): 1 µg/mL (≈ 2.32 µM)
Activity (Candida albicans [14]): Active
Activity (Cryptococcus neoformans [15]): Active
Activity (Nakaseomyces glabratus [16]): Active
Activity (Pichia kudriavzevii [17]): Active
Activity (Candida tropicalis [18]): Active
inhibition (Candida albicans [19]): Dose-Dependent Effect
inhibition at 0.008 µg/mL (Candida albicans [20]): > 70%
half-life [21]: 4.28 h
AUC(0-t) [22]: 18500 ng·h/mL
clearance [23]: 3.27 mL/min/kg
MRT last [24]: 3.27 h
Vd [25]: 1.23 L/kg
Cmax [26]: 2630 ng/mL
Tmax [27]: 2 h
half-life [28]: 6.71 h
AUC(0-t) [29]: 13600 ng·h/mL
MRT last [30]: 3.66 h
bioavailability [31]: 36.8%
Activity (Candida albicans [12]): 2.92 log10CFU/g
Activity (Candida albicans [32]): 2.25 log10CFU/g
Activity (Candida albicans [33]): Dose-Dependent Effect
MST (Candida albicans [34]): 8.5 days
MST (Candida albicans [35]): 10 days
Activity (Erythrocyte): Non-Toxic
inhibition (INH) [36]: Active
Activity [37]: 19.33%
Activity [38]: 24.85%
Activity (Cell membrane): Active
MIC (Candida albicans [39]): 0.016 µg/mL (≈ 0.0371 µM)
MIC (Candida albicans [40]): 0.125 µg/mL (≈ 0.289 µM)
